In series [1] the test system is tyrosinase gene expression in B16F10 melanoma cells. Description: Inhibition of tyrosinase gene expression (real-time PCR). Conditions: α-MSH 10 nM, compound 2 μM, 72 hours, mRNA corrected to β-actin, FIG. 2. The series is classed as cell-based. The procedure:
(§1) B16F10 melanoma cells were distributed in a 6-well plate, to which α-MSH (10 nM) (melanin synthesis inducing substance, alpha-melanocyte-stimulating hormone) and the compounds of example and comparative examples 1˜4 were treated at the concentration of 2 μM each, followed by exposure-culture for 72 hours. Then, the cells were harvested and total RNA of the cells was extracted using RNeasy mini kit (Qiagen). CDNA was synthesized by using M-MLV reverse transcriptase, 5X first-strand butter, dNTP mix and oligo(dT) primer (Thermo Fisher Scientific). The cDNA product, the primers of each gene and LightCycler® MultiplexMasters (Roche) were mixed, followed by SYBR Green-based real-time PCR using LightCycler® NanoInstrument (Roche). To relatively evaluate the level of tyrosinase mRNA expression, the expression was corrected based on the level of β-actin mRNA expression. The PCR conditions for gene amplification are as follows.
Denaturation: 95° C., 10 seconds
Annealing: melting point of each primer, 10 seconds
Extension/Detection: 72° C., 20 seconds
Total cycle number: 45 cycles
Information on the primers used for the amplification of tyrosinase gene expression and information on the primers for β-actin used as a correction gene are as follows.
(In general: Quantitative PCR measures a nucleic acid by following its amplification.)

In series [2] the test system is MITF (microphthalmia-associated transcription factor) gene expression in B16F10 melanoma cells. Description: Inhibition of MITF gene expression (real-time PCR). The class given is cell-based. The conditions noted are these: α-MSH 10 nM, compound 2 μM, 72 hours, FIG. 3. The procedure:
as §1
Evaluation of MITF gene expression was performed by the same manner as described in the evaluation of tyrosinase gene expression in experimental example 1. Information on the primers used for the amplification of MITF gene expression is as follows.

For series [3], the system named is TRP 1 (tyrosinase-related protein 1) gene expression in B16F10 melanoma cells. Description: Inhibition of TRP 1 gene expression (real-time PCR). The class given is cell-based. The conditions noted are these: α-MSH 10 nM, compound 2 μM, 72 hours, FIG. 4a. The procedure: as §1
(§2) Evaluation of TRP 1 and TRP 2 gene expression was performed by the same manner as described in the evaluation of tyrosinase gene expression. Information on the primers used for the amplification of TRP 1 and TRP 2 gene expression is as follows.

Series [4] relates to TRP 2 (tyrosinase-related protein 2) gene expression in B16F10 melanoma cells. Description: Inhibition of TRP 2 gene expression (real-time PCR). The conditions noted are these: α-MSH 10 nM, compound 2 μM, 72 hours, FIG. 4b. The class given is cell-based. The procedure: as §1, §2
The nature of series [5]: Antioxidative effect, DPPH radical scavenging activity test. The conditions noted are these: 37° C., 30 minutes, FIG. 5. As to the method:
The antioxidative effect was evaluated by 2,2-diphenyl-1-picrylhydrazyl (DPPH) radical scavenging activity test.
Dimethyl sulfoxide (DMSO), vitamin C and the compounds of example and comparative examples 1˜4 were added to a 96-well plate at each designated concentration, and 200 μL of 200 μM DPPH methanolic solution was added to each well. The plate was shaken gently to mix them all, followed by reaction at 37° C. for 30 minutes. Then, OD515 was measured. DMSO was used as the control for the measurement of antioxidative effect and vitamin C was used as the positive control for the measurement of antioxidative effect.

The next series concerns B16F10 melanoma cells. Description: Cytotoxicity, MTT assay. The series is classed as cell-based. The conditions noted are these: 48 hours; for cytotoxicity: at the concentration of 10 μM or more. As to the method: B16F10 melanoma cells were distributed in a 96-well plate at the density of 2×10^3 cells/well. The cells were cultured in DMEM supplemented with 10% fetal bovine serum (FBS) at 37° C. in 5% CO2 for 24 hours. The cells were exposed on the compounds of example and comparative examples 1˜4 at the set concentration each for 48 hours. MTT assay was performed to evaluate cytotoxicity. To perform MTT assay, MTT solution was added to the cells, followed by reaction for 2 hours. Then, DMSO was added thereto to dissolve formazan crystals, followed by measurement of OD570.
(Tetrazolium assays rely on reduction of a dye to a coloured formazan, in cell work by metabolically active cells.)

For series [6], the system named is melanin synthesis in B16F10 melanoma cells. Description: Melanin synthesis inhibition. Conditions: α-MSH 10 nM, 72 hours. The class given is cell-based. The procedure: B16F10 melanoma cells were distributed in a 96-well plate at the density of 3×10^5 cells/well. The cells were cultured in DMEM supplemented with 10% FBS at 37° C. in 5% CO2 for 24 hours. […] The cells were harvested, followed by dissolving in 1 N NaOH by heating at 80° C. for 20 minutes. Then, OD490 was measured. The melanin synthesis inhibition rate was calculated as follows.
Melanin inhibition rate (%)=[(C−S)/C]×100
C: OD when α-MSH alone was treated.
S: OD when each sample was treated.

The next series has as its system mushroom tyrosinase. Description: Tyrosinase activity inhibition (L-DOPA oxidation). The series is classed as biochemical. Conditions: pH 7.0, FIG. 8; for inhibitory effect on tyrosinase activity: 6.25 μM (equal concentration). As to the method: Samples were dissolved in an organic solvent such as ethanol, which were diluted in a proper buffer such as 100 mM phosphate buffer (pH 7.0). Those samples diluted at a proper concentration in order to inhibit the activity to DOPA oxidation reaction were used as the sample solutions for the experiment. 850 μL of 100 mM phosphate buffer (pH 7.0), 50 μL of the sample solution and 50 μL of mushroom tyrosinase (2000 U/ml) were loaded in a test tube in that order, followed by reaction at 37° C. for 5 minutes. 50 μL of 0.06 mM L-DOPA (L-3,4-dihydroxyphenylalanine) solution was added thereto, and then OD475 was measured using a microplate reader. After reacting the solution at 37° C. for 15 minutes, OD475 was measured again. DMSO was used as the control and Kojic acid was used for the positive control.
Tyrosinase activity inhibition rate (%)=[(A-B)/A]×100
A: difference of OD in the control group (OD after the reaction—OD before the reaction)
B: difference of OD in the experimental group (OD after the reaction—OD before the reaction)

Consider `COc1cccc(/C=C/C=C/C=C/c2cccc(OC)c2OC)c1OC` [compound of example, (1E,3E,5E)-1,6-bis(2,3-dimethoxyphenyl)hexa-1,3,5-triene], for which the “inhibitory effect on tyrosinase gene expression (relative expression level)” value in series [1] was “excellent in inhibiting tyrosinase gene expression”. The “inhibitory effect on MITF gene expression (relative expression level)” value in series [2] is recorded as “excellent in inhibiting MITF gene expression”. For the same compound, in series [3], the “inhibitory effect on TRP 1 gene expression (relative expression level)” value is “excellent in inhibiting TRP1 and TRP2 gene expression”. Also, the “inhibitory effect on TRP 2 gene expression (relative expression level)” value in series [4] was “excellent in inhibiting TRP1 and TRP2 gene expression”. Moreover, the “antioxidative effect (DPPH radical scavenging activity)” value in series [5] (40 μM, compared with comparative examples 1˜4) was “excellent antioxidative effect”; in series [5] (about 25 μM, compared with comparative examples 1˜3) it was “excellent antioxidative effect”. In addition, in the series on B16F10 melanoma cells (concentration increased from 5 μM to 15 μM, FIG. 6), the cell survival rate is reported as at least 80%. Besides, the “melanin content in the cells” value in series [6] (versus comparative examples, FIG. 7) is on record as “significantly lower”. Also, the “melanin content in media and cells” value in series [6] (compound 1 μM, versus comparative examples 1˜4, FIG. 7) is “lower in both media and cells”. In addition, the “reduction of tyrosinase activity” value in the series on mushroom tyrosinase (6.25 μM) is given as “approximately 20%”.

Take `COc1cc(/C=C/C=C/C=C/c2ccc(O)c(OC)c2)ccc1O` [comparative example 1, 4,4′-((1E,3E,5E)-hexa-1,3,5-triene-1,6-diyl)bis(2-methoxyphenol), reference compound]: the “inhibitory effect on tyrosinase gene expression (relative expression level)” value in series [1] was “hardly had inhibitory effect on the expression of tyrosinase gene”. The cytotoxicity result in the series with B16F10 melanoma cells is reported as “strong cytotoxicity”.

`COc1ccc(/C=C/C=C/C=C/c2ccc(OC)c(O)c2)cc1O` [compound 4, 5,5′-((1E,3E,5E)-hexa-1,3,5-triene-1,6-diyl)bis(2-methoxyphenol)]: the cytotoxicity entry in the series on B16F10 melanoma cells is listed as “strong cytotoxicity”.

Take `COc1ccc(/N=C/c2ccc(O)cc2O)cc1` [compound 2, (E)-4-((4-methoxyphenylimino)methyl)benzene-1,3-diol]: the “inhibitory effect on tyrosinase activity” value in the series with mushroom tyrosinase is “did not show inhibitory effect on tyrosinase activity”.

Turning to `Oc1ccc(/C=C/C=C/C=C/c2ccc(O)cc2)cc1` [compound 3, 4,4′-((1E,3E,5E)-hexa-1,3,5-triene-1,6-diyl)diphenol], the cytotoxicity result in the series with B16F10 melanoma cells is listed as “strong cytotoxicity”. For the same compound, in the series with mushroom tyrosinase, the “inhibitory effect on tyrosinase activity” value is “did not show inhibitory effect on tyrosinase activity”.

Values taken from patent US11166891B2, “Bis phenyl hexa trien derivatives, preparation method thereof, and composition for skin whitening containing the same as an active ingredient” (Korea Research Institute of Chemical Technology, priority 2018, dated 2021).
